{"source": "patent US7972645B2", "about": "“Dioscorea extracts for enhancing immune system” (Academia Sinica, priority 2003, dated 2011)", "tested_on": "NF-κB-inducible ELAM-1 composite promoter", "assay": "NF-κB-inducible ELAM-1 composite promoter reporter (SEAP) assay in transfected B16 melanoma cells", "assay_type": "cell-based", "conditions": "Polymyxin B 400 U", "procedure": "Briefly, B16 melanoma cells were transfected with a vector carrying the human secreted embryonic alkaline phosphatase (SEAP) gene, whose expression is under the control of a NF-κB-inducible ELAM-1 composite promoter, using a standard method for reporter (SEAP) assay. B16 melanoma cells were transfected with the NF-kB-inducible reporter plasmid pNiFty-SEAP (InvivoGen) in the presence of lipofectin (Invitrogen) for 24 hours. The SEAP secreted into medium was measured according to the manufacturer's instructions (Phospha-Light™ System, Applied Biosystems).\nThe transfected cells were then incubated with DsCE-I before the chemiluminescent reporter gene assays were conducted. It was known that LPS increased the activity of NF-κB and p38MAPK was involved in the LPS-induced activation. Therefore, LPS (0.1 μg/ml) was used as a positive control (Group A) and the corresponding […] was normalized as 100%. To illustrate the specificity, the effects of inhibitors of the LPS-induced activation were also examined. These inhibitors included SB203580 (“SB,” a p38MAPK inhibitor), PDTC (“PD,” a NF-κB inhibitor), and Polymyxin B (“PB,” an LPS-binding antibiotic). The solvent used to prepare the reagents was used as a negative control (Group J)."}
{"substance": "Polymyxin B", "values": [{"measurement": "Inhibition of DsCE-I-induced activation (in words)", "setting": "DsCE-I 100 μg/ml", "value": "only partially inhibited"}, {"measurement": "Inhibition of LPS-induced activation (in words)", "setting": "LPS 0.1 μg/ml", "value": "inhibited LPS-induced activation completely"}]}
